Values quoted from earlier work in patent US6642211B2 (Wisconsin Alumni Research Foundation, priority 2001, dated 2003).

Assays:
[1] = system: human tumor xenografts, including malignant glioma; settings: wide variety of human tumor xenografts
[2] = system: recurrent malignant glioma
[3] = system: high grade gliomas and malignant melanoma
[4] = prolonged infusions of up to 30 days, patients with leukemia

SMILES | cell killing in vitro (neoplastic cells) | tumor regression [1] | anti-cancer activity (leukemia; [4]) | myelotoxicity (leukemia; [4]) | efficacy (leukemia; shorter infusions of high dose thymidine) | protection against carboplatin myelotoxicity ([2]; Phase I) | effect on pharmacokinetics or protein binding of carboplatin ([2]; thymidine-carboplatin interaction) | dose-limiting toxicity ([3]; human, in vivo) | clinical efficacy ([3]; treatment of high grade gliomas and malignant melanoma)
Cc1cn([C@H]2C[C@H](O)[C@@H](CO)O2)c(=O)[nH]c1=O [Thymidine] | preferentially kills neoplastic cells | induces partial regression | anti-cancer activity | significant myelotoxicity | effective | protect against dose-limiting carboplatin myelotoxicity | not to affect | – | –
Cn1nnc2c(C(N)=O)ncn2c1=O [Temozolamide] | – | – | – | – | – | – | – | related to myelosuppression | demonstrated clinical efficacy
